# Data taken from article doi:10.1101/2025.03.14.643404, “A Bivalent Molecular Glue Linking Lysine Acetyltransferases to Oncogene-induced Cell Death” (bioRxiv, 2025).
# How the values were obtained:
# p300^WT = p300^WT (Homo sapiens, UniProt Q09472); test: TR-FRET binary displacement assay, p300 WT bromodomain; format: binding; details: α = Kd binary/Kd ternary
# Procedure: Drugs were digitally dispensed (Tecan D300e) into protein-containing wells, and the plate was allowed to incubate in the dark for 1 hour at room temperature. Emission at 490 nm (terbium) and 520 nm (FITC) was measured on a PHERAstar FS plate reader (BMG Labtech) upon excitation with 337 nm. The ratio of signal at 520 nm to 490 nm was calculated and normalized to DMSO-treated protein.
# K422 = test: Cell viability, 7 days compound treatment (Cell Titer-Glo), K422; format: cell-based; details: Homo sapiens, 168 h; K422, 7 days; read-out: IC50 of antiproliferation
# Procedure: Fifteen thousand cells were seeded in 100 μl of media per well of a U-bottom 96-well plate and treated with digitally dispensed drugs (Tecan D300e) for the indicated times and doses. After 96 hours, plates were centrifuged for 750 rpm for 3 minutes, and old media was exchanged for 100 μl of fresh media. Drug treatment was then repeated at the indicated doses. 72 hours following media change, cells were transferred to 96 well flat-bottom opaque plates. Viability was measured by adding 25 μL Cell Titer-Glo reagent (Promega G7570) to each well and luminescence was measured (BMG Labtech Pherastar FS). The background luminescence was subtracted, and the signal was normalized to DMSO-treated cells. IC50 measurements on cell lines were calculated using at least three biological replicates by separate cell passages. Fit of dose–response curves to data and statistical analysis was performed using GraphPad PRISM using the four-parameter log(inhibitor) vs response function.
# FLAG-tagged BCL6 = molecular target: T1, FLAG-tagged BCL6 (Homo sapiens, UniProt P41182+Q09472+Q92793); test: FLAG IP-MS in FLAG-tagged BCL6 knock-in SUDHL5; format: cell-based; details: FLAG-BCL6 SUDHL5, 1 nM, 2 h
# T1 construct: endogenous in cells; host or cells: SUDHL5, CRISPR genomic knock-in at the BCL6 stop codon
# T1 sequence (Q92793 2-2442 limits assumed, other chains not shown): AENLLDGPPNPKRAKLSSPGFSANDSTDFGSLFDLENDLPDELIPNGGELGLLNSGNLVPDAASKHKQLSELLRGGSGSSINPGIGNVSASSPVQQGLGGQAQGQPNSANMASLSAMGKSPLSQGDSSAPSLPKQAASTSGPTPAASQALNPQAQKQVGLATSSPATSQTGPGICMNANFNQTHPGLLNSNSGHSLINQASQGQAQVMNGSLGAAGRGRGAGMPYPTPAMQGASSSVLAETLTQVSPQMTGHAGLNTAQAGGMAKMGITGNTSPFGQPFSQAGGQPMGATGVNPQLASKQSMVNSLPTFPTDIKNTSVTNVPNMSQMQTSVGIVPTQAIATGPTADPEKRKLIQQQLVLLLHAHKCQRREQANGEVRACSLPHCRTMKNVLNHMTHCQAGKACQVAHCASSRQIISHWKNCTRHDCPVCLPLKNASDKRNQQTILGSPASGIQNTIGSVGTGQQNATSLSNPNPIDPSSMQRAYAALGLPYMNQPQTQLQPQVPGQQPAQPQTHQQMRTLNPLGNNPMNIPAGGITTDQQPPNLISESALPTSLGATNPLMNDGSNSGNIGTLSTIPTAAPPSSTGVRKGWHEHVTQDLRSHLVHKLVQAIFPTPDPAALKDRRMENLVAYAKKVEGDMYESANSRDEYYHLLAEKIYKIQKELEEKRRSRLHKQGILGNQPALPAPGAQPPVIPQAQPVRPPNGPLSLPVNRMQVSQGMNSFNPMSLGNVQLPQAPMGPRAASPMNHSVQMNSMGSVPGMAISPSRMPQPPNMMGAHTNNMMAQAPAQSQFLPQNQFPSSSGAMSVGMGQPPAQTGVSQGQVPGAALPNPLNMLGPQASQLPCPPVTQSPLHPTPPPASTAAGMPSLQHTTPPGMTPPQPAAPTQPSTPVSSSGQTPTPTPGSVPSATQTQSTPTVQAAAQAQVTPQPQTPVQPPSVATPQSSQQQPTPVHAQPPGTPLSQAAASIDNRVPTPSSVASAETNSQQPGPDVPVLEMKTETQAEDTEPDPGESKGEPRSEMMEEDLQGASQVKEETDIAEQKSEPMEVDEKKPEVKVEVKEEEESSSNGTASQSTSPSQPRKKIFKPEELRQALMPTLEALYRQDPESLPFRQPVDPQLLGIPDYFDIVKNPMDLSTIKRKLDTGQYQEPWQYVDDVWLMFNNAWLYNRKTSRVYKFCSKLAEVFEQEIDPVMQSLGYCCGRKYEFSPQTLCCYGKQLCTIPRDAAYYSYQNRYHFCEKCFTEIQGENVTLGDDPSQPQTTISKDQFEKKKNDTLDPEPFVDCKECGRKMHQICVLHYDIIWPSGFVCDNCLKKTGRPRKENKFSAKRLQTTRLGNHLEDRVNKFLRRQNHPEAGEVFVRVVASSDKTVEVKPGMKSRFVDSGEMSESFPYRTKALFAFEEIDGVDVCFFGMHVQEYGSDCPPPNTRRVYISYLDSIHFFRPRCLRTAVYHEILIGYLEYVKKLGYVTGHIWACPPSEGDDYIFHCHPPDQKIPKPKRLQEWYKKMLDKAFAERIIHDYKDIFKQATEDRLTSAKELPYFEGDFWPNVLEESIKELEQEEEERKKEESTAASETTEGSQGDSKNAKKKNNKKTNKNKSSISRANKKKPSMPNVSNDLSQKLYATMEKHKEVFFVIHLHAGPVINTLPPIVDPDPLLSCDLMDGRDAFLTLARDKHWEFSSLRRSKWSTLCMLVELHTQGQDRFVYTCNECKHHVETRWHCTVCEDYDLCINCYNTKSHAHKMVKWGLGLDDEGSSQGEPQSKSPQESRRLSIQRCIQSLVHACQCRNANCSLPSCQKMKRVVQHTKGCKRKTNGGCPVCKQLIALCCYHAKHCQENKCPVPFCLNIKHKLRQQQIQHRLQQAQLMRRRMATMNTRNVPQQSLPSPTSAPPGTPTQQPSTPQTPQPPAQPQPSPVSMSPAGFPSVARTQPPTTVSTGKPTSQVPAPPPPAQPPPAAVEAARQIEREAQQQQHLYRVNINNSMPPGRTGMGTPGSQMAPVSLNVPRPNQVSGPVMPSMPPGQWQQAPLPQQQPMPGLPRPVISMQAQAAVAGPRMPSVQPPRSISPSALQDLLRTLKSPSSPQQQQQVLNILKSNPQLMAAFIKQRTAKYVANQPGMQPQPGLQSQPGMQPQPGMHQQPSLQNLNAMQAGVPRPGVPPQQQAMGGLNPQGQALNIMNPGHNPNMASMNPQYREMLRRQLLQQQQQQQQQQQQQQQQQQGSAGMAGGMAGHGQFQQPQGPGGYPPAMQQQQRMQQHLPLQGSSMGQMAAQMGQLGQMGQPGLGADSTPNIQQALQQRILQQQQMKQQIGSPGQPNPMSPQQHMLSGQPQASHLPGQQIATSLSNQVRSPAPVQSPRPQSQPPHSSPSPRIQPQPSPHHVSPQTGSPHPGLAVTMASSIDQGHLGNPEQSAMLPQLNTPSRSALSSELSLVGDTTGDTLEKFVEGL
# T1 sequence (Q09472 2-2414 limits assumed, other chains not shown): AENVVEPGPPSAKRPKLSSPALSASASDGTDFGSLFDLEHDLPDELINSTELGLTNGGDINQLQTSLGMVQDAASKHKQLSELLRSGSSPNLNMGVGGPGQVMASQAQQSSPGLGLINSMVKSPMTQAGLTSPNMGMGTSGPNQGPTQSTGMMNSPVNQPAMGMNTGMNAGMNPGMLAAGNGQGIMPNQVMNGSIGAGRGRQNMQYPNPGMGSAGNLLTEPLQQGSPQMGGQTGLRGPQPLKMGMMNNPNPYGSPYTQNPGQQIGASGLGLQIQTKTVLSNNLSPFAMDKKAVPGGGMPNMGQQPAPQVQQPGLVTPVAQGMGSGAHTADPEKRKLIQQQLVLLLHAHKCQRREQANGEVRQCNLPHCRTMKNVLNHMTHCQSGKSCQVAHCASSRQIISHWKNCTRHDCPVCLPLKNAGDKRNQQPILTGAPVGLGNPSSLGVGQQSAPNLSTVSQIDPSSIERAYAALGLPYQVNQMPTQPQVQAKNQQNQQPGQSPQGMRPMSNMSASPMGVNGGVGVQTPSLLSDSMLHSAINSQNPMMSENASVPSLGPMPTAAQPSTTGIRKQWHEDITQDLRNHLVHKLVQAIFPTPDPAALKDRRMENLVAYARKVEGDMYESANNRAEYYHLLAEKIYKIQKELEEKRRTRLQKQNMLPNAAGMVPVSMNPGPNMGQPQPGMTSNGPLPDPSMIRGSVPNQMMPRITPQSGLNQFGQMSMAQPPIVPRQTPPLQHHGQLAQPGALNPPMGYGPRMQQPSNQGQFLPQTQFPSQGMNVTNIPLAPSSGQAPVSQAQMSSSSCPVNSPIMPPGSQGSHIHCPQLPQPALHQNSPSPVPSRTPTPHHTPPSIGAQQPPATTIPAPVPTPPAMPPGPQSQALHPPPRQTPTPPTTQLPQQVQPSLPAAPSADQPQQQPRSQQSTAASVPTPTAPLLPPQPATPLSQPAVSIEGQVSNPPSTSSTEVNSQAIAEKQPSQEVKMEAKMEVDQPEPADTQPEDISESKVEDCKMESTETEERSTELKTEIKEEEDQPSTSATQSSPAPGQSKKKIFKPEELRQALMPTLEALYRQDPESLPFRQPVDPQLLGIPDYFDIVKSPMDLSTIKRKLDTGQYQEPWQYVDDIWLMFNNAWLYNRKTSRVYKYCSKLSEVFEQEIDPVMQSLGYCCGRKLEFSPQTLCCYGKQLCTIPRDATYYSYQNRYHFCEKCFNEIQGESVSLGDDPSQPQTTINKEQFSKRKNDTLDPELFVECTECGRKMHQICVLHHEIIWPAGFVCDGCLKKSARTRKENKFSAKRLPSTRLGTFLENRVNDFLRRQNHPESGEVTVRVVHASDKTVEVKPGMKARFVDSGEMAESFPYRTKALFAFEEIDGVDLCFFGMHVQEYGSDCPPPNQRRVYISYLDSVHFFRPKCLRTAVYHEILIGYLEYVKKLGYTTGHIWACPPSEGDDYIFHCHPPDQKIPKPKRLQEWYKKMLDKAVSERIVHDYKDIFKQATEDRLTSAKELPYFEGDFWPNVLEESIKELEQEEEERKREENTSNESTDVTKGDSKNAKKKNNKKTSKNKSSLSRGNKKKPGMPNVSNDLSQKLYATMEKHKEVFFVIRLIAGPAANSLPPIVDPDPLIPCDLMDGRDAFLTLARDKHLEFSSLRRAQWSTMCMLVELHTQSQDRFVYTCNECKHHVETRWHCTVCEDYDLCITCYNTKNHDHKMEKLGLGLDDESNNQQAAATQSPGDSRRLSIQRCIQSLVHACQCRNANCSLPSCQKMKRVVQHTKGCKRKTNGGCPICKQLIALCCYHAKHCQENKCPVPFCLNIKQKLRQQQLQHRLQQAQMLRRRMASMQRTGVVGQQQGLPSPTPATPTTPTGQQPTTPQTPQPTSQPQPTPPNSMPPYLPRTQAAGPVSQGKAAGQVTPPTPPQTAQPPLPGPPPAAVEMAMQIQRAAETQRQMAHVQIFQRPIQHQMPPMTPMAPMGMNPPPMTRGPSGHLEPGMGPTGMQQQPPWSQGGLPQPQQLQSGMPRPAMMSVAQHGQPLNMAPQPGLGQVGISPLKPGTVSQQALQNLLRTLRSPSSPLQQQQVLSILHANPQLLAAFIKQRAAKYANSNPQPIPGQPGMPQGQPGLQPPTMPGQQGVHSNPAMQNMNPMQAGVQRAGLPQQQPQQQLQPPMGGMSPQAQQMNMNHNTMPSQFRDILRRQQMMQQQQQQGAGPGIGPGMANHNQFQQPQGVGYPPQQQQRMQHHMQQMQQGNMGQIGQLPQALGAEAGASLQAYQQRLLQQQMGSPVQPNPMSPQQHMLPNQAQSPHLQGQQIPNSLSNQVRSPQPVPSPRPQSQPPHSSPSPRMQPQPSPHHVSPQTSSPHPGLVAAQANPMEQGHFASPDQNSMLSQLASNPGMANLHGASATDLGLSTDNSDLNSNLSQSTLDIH
# Procedure: 50 million FLAG-BCL6 knock-in SUDHL5 cells were treated compound or DMSO (0.1%) at indicated doses for 2 hours. Cells were lysed in NE10 buffer (20 mM HEPES (pH 7.5), 10 mM KCl, 1 mM MgCl2, 0.1% Triton X-100 (v/v), protease inhibitors (Roche), 15 mM ß-mercaptoethanol), dounced 15 times and pelleted 5 min at 500 g. Nuclei were washed in NE10 buffer and then digested with 250 units benzonase (Millipore) for 30 min rotating at 25°C. Nuclei were resuspended in NE150 buffer (NE10 supplemented with 150mM NaCl) and incubated for 20 min. Lysates were pelleted at 16,000 g for 20 min at 4°C and supernatants were immunoprecipitated by incubating with 2.5 μg FLAG M2 antibody (F1804, Millipore-Sigma) or 2.5 μg p300 (A300–358A, Bethyl Laboratories) antibody with Dynabeads Protein G (Thermo Fisher) overnight at 4°C. The IP fraction was recovered by magnetic separation followed by three washes with NE10 buffer containing 150mM–300mM NaCl but without Triton-X. For mass spectrometry analysis, the IP was then eluted from the beads with Ammonium Hydroxide, pH 11–12; 3% v/v. […]
# The reconstituted desalted peptides were then analyzed using a nanoElute 2 UHPLC (Bruker Daltonics, Bremen, Germany) coupled to a timsTOF HT (Bruker Daltonics, Bremen, Germany) via a CaptiveSpray nano-electrospray source. […]
# Sequence of p300^WT (Q09472 1049-1156 limits assumed): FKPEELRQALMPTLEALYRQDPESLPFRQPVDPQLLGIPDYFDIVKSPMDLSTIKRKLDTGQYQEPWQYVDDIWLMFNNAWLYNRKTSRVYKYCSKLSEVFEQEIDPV
structure (smiles),measurement,setting,value
CNC(=O)COc1cc2cc(Nc3nc(N4CCC(C(=O)N5CCN(CCC(=O)N6CCC(n7nc(N8CCCc9cc(-c%10cnn(C)c%10)c(C(F)F)cc98)c8c7CCN(C(=O)NC)C8)CC6)CC5)CC4)ncc3Cl)cc(OC)c2n(C)c1=O [TCIP3],cooperativity α,p300^WT,4.2
same,IC50,K422,4 nM
same,"enrichment of CBP in FLAG-BCL6 IP, log2(fold change)",FLAG-tagged BCL6; vs DMSO,3.7
same,"enrichment of p300 in FLAG-BCL6 IP, log2(fold change)","FLAG-tagged BCL6; no peptides in DMSO, imputed",3.7
